Results taken from patent publication US6852310B2, “Skin lightening agents, compositions and methods” (Unilever Home & Personal Care USA division of Conopco, Inc., priority 2002, dated 2005).

Assays:
B16 mouse melanoma cells = experiment: Melanin synthesis in B16 mouse melanoma cells (cell based assay); conditions: 6.25 micromolar, 72 hours, melanin in medium read at 530-nm, read-out: % of Control (Melanin Synthesis)
Method: This experiment was carried out using a cell based assay.
B16 mouse melanoma cells were utilized in the following experiment to evaluate the efficacy of skin lightening agents. B16 cells were plated in 96-well microtiter plates at a density of 5000 cells per well and cultured overnight in Dulbecco's Modified Eagle's Medium (phenol red free) containing 10% fetal bovine serum and 1% penicillin/streptomycin at 37° C. in the presence of 5% CO2. After 24 hours, the medium was replaced with fresh growth medium containing the treatments. All cultures were incubated for 72 hours at which time melanin was visible in the control treatment. The melanin-containing medium was transferred to a clean 96-well plate and quantified by reading the absorbency at 530-nm. Cell viability was assessed by measurement of lactate dehydrogenase levels to ensure the decrease in melanin was not a result of cellular toxicity.

mushroom tyrosinase = experiment: Mushroom Tyrosinase Assay; assay type: biochemical; conditions: for tyrosinase activity, % of ethanol control: slope of 475-nm absorbency vs. untreated ethanol control, L-DOPA substrate
Method: Mushroom tyrosinase inhibition is indicative of reduction in melanin synthesis, thereby showing skin lightening effect.
Into each well of a 96-well plate, 150 microliters of phosphate buffer (100 mM, pH 7.0), 10 microliters of L-DOPA (L-3, 4-Dihydroxyphenylalanine, 10 mM), and 20 microliters of skin lightening agent (dissolved in ethanol, which is the control) were added. Following an initial measurement of background absorbency at 475-nm, 20 microliters of mushroom tyrosinase (Sigma T-7755; 6050 units/ml) was added and incubated at room temperature.
Absorbency is read at 475-nm over the following time points: 0, 2, 4, and 6.5 minutes. The data is plotted as 475-nm absorbency vs. time (minutes) and the slope of the line is calculated (ΔAbs 475 nm/min). Values are expressed as the percentage of the respective untreated ethanol control reaction. [formula]

For `CCc1ccc(O)cc1O` [4-Ethyl Resorcinol], the activity at 6.25 µM (B16 mouse melanoma cells) was 15.6%, the “tyrosinase activity, % of ethanol control” value (from here on “tyrosinase activity, %”) (mushroom tyrosinase; 0.1 uM) was 72.7 % of Control and the “tyrosinase activity, %” value (mushroom tyrosinase; 1 uM) was 46.3 % of Control. For the same compound, the “tyrosinase activity, %” value (mushroom tyrosinase; 10 uM) was 30.8 % of Control and the “tyrosinase activity, %” value (mushroom tyrosinase; 100 uM) was 20.7 % of Control.
`COCCNC(=O)/C=C\c1ccc(O)cc1O` [Resorcinol Amide 2] was tested, and the activity at 6.25 µM (B16 mouse melanoma cells) was 13.7%, the “tyrosinase activity, %” value (mushroom tyrosinase; 0.1 uM) was 84.2 % of Control and the “tyrosinase activity, %” value (mushroom tyrosinase; 1 uM) was 59.5 % of Control. The “tyrosinase activity, %” value (mushroom tyrosinase; 10 uM) was 58.0 % of Control and the “tyrosinase activity, %” value (mushroom tyrosinase; 100 uM) was 57.9 % of Control.
`CNC(=O)/C=C\c1ccc(O)cc1O` [Resorcinol Amide 1] was tested, and the activity at 6.25 µM (B16 mouse melanoma cells) was 13.1%, the “tyrosinase activity, %” value (mushroom tyrosinase; 0.1 uM) was 75.1 % of Control and the “tyrosinase activity, %” value (mushroom tyrosinase; 1 uM) was 51.0 % of Control. For the same compound, the “tyrosinase activity, %” value (mushroom tyrosinase; 10 uM) was 53.0 % of Control and the “tyrosinase activity, %” value (mushroom tyrosinase; 100 uM) was 53.4 % of Control.
For `O=c1ccc2ccc(O)cc2o1` [7-Hydroxy Coumarin, 7-hydroxy coumarin], the “tyrosinase activity, %” value (mushroom tyrosinase; 0.1 uM) was 104 % of Control, the “tyrosinase activity, %” value (mushroom tyrosinase; 1 uM) was 100 % of Control and the “tyrosinase activity, %” value (mushroom tyrosinase; 10 uM) was 108 % of Control. For the same compound, the “tyrosinase activity, %” value (mushroom tyrosinase; 100 uM) was 117 % of Control and the “skin lightening effectiveness (in words, from tyrosinase data)” value (mushroom tyrosinase; conclusion drawn from Table 8) was “effective in skin lightening”.
